biological target: T1, human kinase Mps-1 (Homo sapiens, UniProt P33981); test: Mps-1 Kinase Assay (TR-FRET); type: biochemical; settings: N-terminally GST-tagged human full length recombinant Mps-1; 10 μM ATP; 1 μM biotinylated peptide substrate; 60 min at 22° C.; read-out: MPS1 Inhibition, IC50 in M
T1 construct: N-terminally GST-tagged human full length recombinant Mps-1 kinase; purchased Invitrogen, Karslruhe, Germany PV4071
T1 sequence (P33981 1-857): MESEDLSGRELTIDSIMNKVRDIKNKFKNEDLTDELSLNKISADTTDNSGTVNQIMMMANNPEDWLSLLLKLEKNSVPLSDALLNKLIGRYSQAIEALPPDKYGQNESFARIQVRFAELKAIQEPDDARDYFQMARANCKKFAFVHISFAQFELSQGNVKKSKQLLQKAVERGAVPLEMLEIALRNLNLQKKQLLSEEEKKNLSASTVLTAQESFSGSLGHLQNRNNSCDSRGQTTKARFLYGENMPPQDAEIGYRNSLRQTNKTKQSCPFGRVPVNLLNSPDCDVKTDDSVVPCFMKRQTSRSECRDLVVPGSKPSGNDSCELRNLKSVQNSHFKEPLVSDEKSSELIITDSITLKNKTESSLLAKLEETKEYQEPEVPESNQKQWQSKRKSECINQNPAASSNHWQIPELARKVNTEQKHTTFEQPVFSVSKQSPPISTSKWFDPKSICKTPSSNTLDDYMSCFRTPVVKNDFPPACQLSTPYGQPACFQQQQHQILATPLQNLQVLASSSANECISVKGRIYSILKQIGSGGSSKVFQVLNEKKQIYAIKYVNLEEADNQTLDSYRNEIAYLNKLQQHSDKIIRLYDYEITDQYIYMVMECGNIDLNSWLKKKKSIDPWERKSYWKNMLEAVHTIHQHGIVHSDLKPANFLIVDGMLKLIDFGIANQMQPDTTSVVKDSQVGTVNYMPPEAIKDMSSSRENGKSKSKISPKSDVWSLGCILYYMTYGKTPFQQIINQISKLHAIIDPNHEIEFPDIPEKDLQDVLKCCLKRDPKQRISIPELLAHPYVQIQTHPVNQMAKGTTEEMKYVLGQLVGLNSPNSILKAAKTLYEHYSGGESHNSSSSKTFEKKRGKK

Point of comparison: COc1ccccc1Nc1nc2ccc(-c3cccc(NC(=O)N4CCN(C)CC4)c3)cn2n1 [Example 8.8, N-(3-{2-[(2-methoxyphenyl)amino][1,2,4]triazolo[1,5-a]pyridin-6-yl}phenyl)-4-methylpiperazine-1-carboxamide], IC50 620 nM. Against it:
- NC(C(=O)Nc1ccc(-c2ccc3nc(Nc4ccccc4C(F)(F)F)nn3c2)cc1)c1ccccc1 (racemic) [Example 5.7, rac-2-amino-2-phenyl-N-[4-(2-{[2-(trifluoromethyl)phenyl]amino}[1,2,4]triazolo[1,5-a]pyridin-6-yl)phenyl]acetamide] — 44-fold lower, 14 nM
- COC(C(=O)Nc1ccc(-c2ccc3nc(Nc4ccccc4C(F)(F)F)nn3c2)cc1)c1ccccc1 (racemic) [Example 5.9, Rac-2-methoxy-2-phenyl-N-[4-(2-{[2-(trifluoromethyl)phenyl]amino}[1,2,4]-triazolo[1,5-a]pyridin-6-yl)phenyl]acetamide] — 5.6-fold lower, 110 nM
- CO[C@H](C(=O)Nc1ccc(-c2ccc3nc(Nc4ccccc4C#N)nn3c2)cc1)c1ccccc1 (stereo in doubt) [Example 3.2, N-(4-{2-[(2-cyanophenyl)amino][1,2,4]triazolo[1,5-a]pyridin-6-yl}phenyl)-2-methoxy-2-phenylacetamide] — 180-fold lower, 3.4 nM
- COc1ccccc1Nc1nc2ccc(-c3ccc(C(=O)NC4CC4)cc3)cn2n1 [Example 1.1, N-Cyclopropyl-4-[2-(2-methoxy-phenylamino)-[1,2,4]triazolo[1,5-a]pyridin-6-yl]-benzamide] — 1.7-fold lower, 370 nM
- N#Cc1ccccc1Nc1nc2ccc(-c3cccc(C(=O)Nc4ccccc4)c3)cn2n1 [Example 2.1, 3-{2-[(2-cyanophenyl)amino][1,2,4]triazolo[1,5-a]pyridin-6-yl}-N-phenylbenzamide] — 9.5-fold lower, 65 nM
- N#Cc1ccccc1Nc1nc2ccc(-c3ccc(NC(=O)Cc4ccc(C(F)(F)F)cc4)cc3)cn2n1 [Example 3.1, N-(4-{2-[(2-cyanophenyl)amino][1,2,4]triazolo[1,5-a]pyridin-6-yl}phenyl)-2-[4-(trifluoromethyl)phenyl]acetamide] — 76-fold lower, 8.2 nM
- N#Cc1ccccc1Nc1nc2ccc(-c3ccc(NC(=O)Cc4cccc(F)c4)cc3)cn2n1 [Example 3.5, N-(4-{2-[(2-cyanophenyl)amino][1,2,4]triazolo[1,5-a]pyridin-6-yl}phenyl)-2-(3-fluorophenyl)acetamide] — 560-fold lower, 1.1 nM
- N#Cc1ccccc1Nc1nc2ccc(-c3ccc(NC(=O)Nc4ccccc4)cc3)cn2n1 [Example 3.7, 1-(4-{2-[(2-cyanophenyl)amino][1,2,4]triazolo[1,5-a]pyridin-6-yl}phenyl)-3-phenylurea] — 52-fold lower, 12 nM
- N#Cc1ccccc1Nc1nc2ccc(-c3ccc(NC(=O)Cc4cccnc4)cc3)cn2n1 [Example 3.8, N-(4-{2-[(2-cyanophenyl)amino][1,2,4]triazolo[1,5-a]pyridin-6-yl}phenyl)-2-(pyridin-3-yl)acetamide] — 180-fold lower, 3.5 nM
- COc1ccccc1Nc1nc2ccc(-c3ccc(NC(=O)CC4CC4)cc3)cn2n1 [Example 4.2, 2-cyclopropyl-N-(4-{2-[(2-methoxyphenyl)amino][1,2,4]triazolo[1,5-a]pyridin-6-yl}phenyl)acetamide] — 23-fold lower, 27 nM
- COc1ccccc1Nc1nc2ccc(-c3ccc(NC(=O)C4CC4)cc3)cn2n1 [Example 4.3, N-(4-{2-[(2-methoxyphenyl)amino][1,2,4]triazolo[1,5-a]pyridin-6-yl}phenyl)cyclopropanecarboxamide] — 16-fold lower, 39 nM
- O=C(Cc1ccccc1)Nc1ccc(-c2ccc3nc(Nc4ccccc4C(F)(F)F)nn3c2)cc1 [Example 5.1, 2-phenyl-N-[4-(2-{[2-(trifluoromethyl)phenyl]amino}[1,2,4]triazolo[1,5-a]pyridin-6-yl)phenyl]acetamide] — 87-fold lower, 7.1 nM
- O=C(Nc1ccc(-c2ccc3nc(Nc4ccccc4C(F)(F)F)nn3c2)cc1)C1CC1 [Example 5.2, N-[4-(2-{[2-(trifluoromethyl)phenyl]amino}[1,2,4]triazolo[1,5-a]pyridin-6-yl)phenyl]cyclopropanecarboxamide] — 3.4-fold lower, 180 nM
- O=C(CC1CC1)Nc1ccc(-c2ccc3nc(Nc4ccccc4C(F)(F)F)nn3c2)cc1 [Example 5.3, 2-cyclopropyl-N-[4-(2-{[2-(trifluoromethyl)phenyl]amino}[1,2,4]triazolo[1,5-a]pyridin-6-yl)phenyl]acetamide] — 7.7-fold lower, 81 nM
- CN1CCN(CC(=O)Nc2ccc(-c3ccc4nc(Nc5ccccc5C(F)(F)F)nn4c3)cc2)CC1 [Example 5.4, 2-(4-methylpiperazin-1-yl)-N-[4-(2-{[2-(trifluoromethyl)phenyl]amino}[1,2,4]triazolo[1,5-a]pyridin-6-yl)phenyl]acetamide] — 3.5-fold higher, 2200 nM
- O=C(CN1CCOCC1)Nc1ccc(-c2ccc3nc(Nc4ccccc4C(F)(F)F)nn3c2)cc1 [Example 5.5, 2-(morpholin-4-yl)-N-[4-(2-{[2-(trifluoromethyl)phenyl]amino}[1,2,4]triazolo[1,5-a]pyridin-6-yl)phenyl]acetamide] — 5.3-fold higher, 3300 nM
- O=C(CN1CCCCC1)Nc1ccc(-c2ccc3nc(Nc4ccccc4C(F)(F)F)nn3c2)cc1 [Example 5.6, 2-(piperidin-1-yl)-N-[4-(2-{[2-(trifluoromethyl)phenyl]amino}[1,2,4]triazolo[1,5-a]pyridin-6-yl)phenyl]acetamide] — within 1.5-fold, 880 nM
- O=C(Cc1cccnc1)Nc1ccc(-c2ccc3nc(Nc4ccccc4C(F)(F)F)nn3c2)cc1 [Example 5.8, 2-(pyridin-3-yl)-N-[4-(2-{[2-(trifluoromethyl)phenyl]amino}[1,2,4]triazolo[1,5-a]pyridin-6-yl)phenyl]acetamide] — 6.3-fold lower, 99 nM
- COc1ccccc1Nc1nc2ccc(-c3cccc(NC(=O)Cc4ccccc4)c3)cn2n1 [Example 8.1, N-(3-{2-[(2-methoxyphenyl)amino][1,2,4]triazolo[1,5-a]pyridin-6-yl}phenyl)-2-phenylacetamide] — 2.1-fold lower, 290 nM
- COc1ccccc1Nc1nc2ccc(-c3cccc(NC(=O)C4CC4)c3)cn2n1 [Example 8.2, N-(3-{2-[(2-methoxyphenyl)amino][1,2,4]triazolo[1,5-a]pyridin-6-yl}phenyl)cyclopropanecarboxamide] — 11-fold lower, 59 nM
- COc1ccccc1Nc1nc2ccc(-c3cccc(NS(=O)(=O)CC4CC4)c3)cn2n1 [Example 8.3, 1-Cyclopropyl-N-(3-{2-[(2-methoxyphenyl)amino][1,2,4]triazolo[1,5-a]pyridin-6-yl}phenyl)methanesulfonamide] — 9.4-fold lower, 66 nM
- COc1ccccc1Nc1nc2ccc(-c3cccc(NS(=O)(=O)C4CC4)c3)cn2n1 [Example 8.4, N-(3-{2-[(2-methoxyphenyl)amino][1,2,4]triazolo[1,5-a]pyridin-6-yl}phenyl)cyclopropanesulfonamide] — 2.1-fold lower, 290 nM
- COc1ccccc1Nc1nc2ccc(-c3cccc(NC(=O)Nc4ccccc4)c3)cn2n1 [Example 8.5, 1-(3-{2-[(2-methoxyphenyl)amino][1,2,4]triazolo[1,5-a]pyridin-6-yl}phenyl)-3-phenylurea] — within 1.5-fold, 440 nM
- COc1ccccc1Nc1nc2ccc(-c3cccc(NS(=O)(=O)c4ccccc4)c3)cn2n1 [Example 8.6, N-(3-{2-[(2-methoxyphenyl)amino][1,2,4]triazolo[1,5-a]pyridin-6-yl}phenyl)benzenesulfonamide] — 1.7-fold lower, 360 nM
- COc1ccccc1Nc1nc2ccc(-c3cccc(NC(=O)c4ccccc4)c3)cn2n1 [Example 8.7, N-(3-{2-[(2-methoxyphenyl)amino][1,2,4]triazolo[1,5-a]pyridin-6-yl}phenyl)benzamide] — 2.1-fold lower, 290 nM
